Measurements as given in publication PMC8695447, “Novel Small Molecules Capable of Blocking mtRAS-Signaling Pathway” (Frontiers in Oncology, 2021).

Assays:
Format in all cases: cell-based
[1] = tested on: MDA-MB-468 (KRAS, NRAS-wt); assay: Anti-proliferation assay on MDA-MB-468; conditions: for GI50: Homo sapiens, MDA-MB-468, 72 h treatment, average with SD (n = 3, duplicate); for antiproliferative activity fold lower on MDA-MB-468 cells than on HCT-116 harboring KRAS-G13D mutation: MDA-MB-468 versus HCT-116; for times less active on MDA-MB-468 cells harboring wtRAS than on SW480 cells with KRAS-G12V mutation: MDA-MB-468 versus SW480
Description: (§1) Ba/F3-parental, OCI-AML3, U397 cells were purchased from DSMZ. MDA-MB-231, HCT-116, AsPC-1, H358, HT-29, SW480, and DU-145 cells were obtained from KCLB. MDA-MB-468 cells were obtained from ATCC. All cells were maintained in RPMI with 10% FBS and antibiotics. Cells were grown in a humidified 5% CO2 incubator at 37°C. Ba/F3-parental cells were grown in the presence of 10 ng/ml IL-3. NRAS-G12D or NRAS-G12V transformed Ba/F3 cell lines (Ba/F3-NRAS-G12D, and Ba/F3-NRAS-G12V, respectively) were cultured without IL-3, which were established by the procedure described as previously ([30]).
(§2) Approximately 3.0 × 10^3 cells/well were seeded in a 96-well cell culture plate. After stabilization, 1/3 serially diluted compound in DMSO was treated to the cell. […] All GI50 values were obtained in duplicate with three independent assays and averages with standard deviation are presented.

[2] = tested on: HT-29 (KRAS-Q61L); assay: Anti-proliferation assay on HT-29; conditions: Homo sapiens, HT-29; 72 h treatment; average with SD (n = 3, duplicate)
Description: as §1, §2

[3] = tested on: Ba/F3-NRAS-G12V cells; assay: Anti-proliferation assay (CellTiter Glo) on Ba/F3-NRAS-G12V; conditions: Mus musculus, BaF3; 72 h treatment; average with SD (n = 3, duplicate)
Description: as §1, §2

[4] = tested on: cancer cells with mtRAS including H358, AsPC-1, DU-145, SW480, and MDA-MB-231; assay: Migration assay (scratch assay); conditions: 0.01 µM
Description: For migration assay, scratch assay was conducted. Each cells (2.0 × 10^5 cells/well) were seeded in 24-well plates. After cellular attachment, cells were scratched with a SPLScarTM Scratcher (SPL Life Sciences, #201924) and the detached cells were removed by PBS washing twice. Cells were incubated in complete media with 0.01 μM concentrations of each compounds for indicated time. The images were acquired before and after incubation with compounds (40× magnification), and percent of migration were accessed using ImageJ (n = 3).
Figure 6 The effects of SIJ1795 and SIJ1772 on migration and invasion activities of cancer cells harboring mtRAS. (A) Scratch assay result for cell migration ability determination. Each cell monolayers were scratched and incubated with test compounds at 0.01 μM. After 8 h (MDA-MB-231) or 24 h (DU-145, SW480, HCT-116) or 48 h (AsPC-1) or 72 h (HT-29), cells were stained with crystal violet. Migrated areas were photographed with 40× magnification. Migrated area was determined by ImageJ (n = 3). (B) Boyden chamber assay result for cell invasion ability determination. Indicated compounds of 0.01 μM were treated and incubated for 48 h Invaded cells were stained by crystal violet and photographed. Stained cells were counted by ImageJ (n = 3). Statistical significance was determined using a one-way ANOVA analysis (*p < 0.05, **p < 0.01, ***p < 0.001, ****p < 0.0001).

[5] = tested on: DU-145 (KRAS-G12V); assay: Anti-proliferation assay on DU-145; conditions: Homo sapiens, DU-145; 72 h treatment; average with SD (n = 3, duplicate)
Description: as §1, §2

[6] = tested on: cancer cells harboring mtRAS; assay: Colony formation assay (2D clonogenic assay); conditions: 0.1 μM, 14 days
Description: Colony formation assay was conducted for 2D clonogenic assay. Approximately 1 × 10^3 cells/well were seeded in 6-well plate. After cellular attachment, indicated concentrations of compounds were treated for 14 days at 37°C. Colonies were stained by crystal violet solution for 30 min. The total area of each well was observed without magnification, and the number of colonies of each well were accessed using ImageJ software (n = 3).
Figure 7 (A–F) Colony formation assay results evaluating the effects of SIJ1795 and SIJ1772 on clonogenic abilities of on cancer cells harboring mtRAS. Cells were incubated with indicated compounds (0.01 µM or 0.1 µM) for 14 days. After staining with crystal violet, colonies were photographed without magnification. (G–L) Number of colonies (% of control) upon treatment with indicated compounds at 0.1 µM concentration were determined by ImageJ (n = 3, respectively). Statistical significance was calculated by using a one-way ANOVA analysis (**p < 0.01, ***p < 0.001, ****p < 0.0001).

SMILES	GI50 [1] [µM]	antiproliferative activity fold lower on MDA-MB-468 cells than on HCT-116 harboring KRAS-G13D mutation [1] [fold]	times less active on MDA-MB-468 cells harboring wtRAS than on SW480 cells with KRAS-G12V mutation [1] [times]	GI50 [2] [µM]	GI50 [3] [µM]	reduction in migration capabilities [4]	GI50 [5] [µM]	colony formation [6]
Cc1ccc(NC(=O)c2cccc(C(F)(F)F)c2)cc1N1Cc2cnc(Nc3cnn(C4CCN(S(C)(=O)=O)CC4)c3)nc2N(C)C1=O [SIJ1772, N-(4-Methyl-3-(1-methyl-7-((1-(1-(methylsulfonyl)piperidin-4-yl)-1H-pyrazol-4-yl)amino)-2-oxo-1,4-dihydropyrimido[4,5-d]pyrimidin-3(2H)-yl)phenyl)-3-(trifluoromethyl)benzamide]	44.9 ± 6.25	1182	101	0.192 ± 0.094	0.096 ± 0.009	over 50%	0.029 ± 0.003	suppressed
CCN1CCN(c2cccc(Nc3ncc4c(n3)N(C)C(=O)N(c3cc(NC(=O)c5cccc(C(F)(F)F)c5)ccc3C)C4)c2)CC1 [SIJ1795, N-(3-(7-((3-(4-Ethylpiperazin-1-yl)phenyl)amino)-1-methyl-2-oxo-1,4-dihydropyrimido[4,5-d]pyrimidin-3(2H)-yl)-4-methylphenyl)-3-(trifluoromethyl)benzamide]	15.7 ± 5.31	476	64	0.154 ± 0.042	0.075 ± 0.045	over 50%	0.077 ± 0.043	suppressed
